Measured values from paper PMC7914897, “Cytotoxic Potential of a-Azepano- and 3-Amino-3,4-SeCo-Triterpenoids” (International Journal of Molecular Sciences, 2021).
Like-named read-outs stand apart in the source and are kept apart here.

How the values were obtained:
SK-MEL-2 (Melanoma) = assay: NCI-60 screen (SRB, 48 h); conditions: Homo sapiens
SK-OV-3 (Ovarian cancer) = assay: NCI-60 screen (SRB, 48 h); conditions: Homo sapiens
Breast cancer subpanel = assay: NCI-60 screen, subpanel; conditions: Homo sapiens
SW-620 (Colon cancer) = assay: NCI-60 screen (SRB, 48 h); conditions: Homo sapiens
[1] = tested on: NCI-H460 (NSC lung cancer); assay: NCI-60 screen (SRB, 48 h); conditions: Homo sapiens
LOX IMVI (Melanoma) = assay: NCI-60 screen (SRB, 48 h); assay type: cell-based; conditions: Homo sapiens
PC-3 (Prostate cancer) = assay: NCI-60 screen (SRB, 48 h); conditions: Homo sapiens
Renal Cancer subpanel = assay: NCI-60 screen, subpanel; conditions: Homo sapiens
[2] = tested on: NCI-H226 (NSC lung cancer); assay: NCI-60 screen (SRB, 48 h); conditions: Homo sapiens
BT-549 (Breast cancer) = assay: NCI-60 screen (SRB, 48 h); assay type: cell-based; conditions: Homo sapiens
[3] = tested on: panel of approximately 60 cancer cell lines; assay: NCI-60 screen (SRB, 48 h), full panel
[4] = tested on: NCI-H322M (NSC lung cancer); assay: NCI-60 screen (SRB, 48 h); conditions: Homo sapiens
RXF 393 (Renal cancer) = assay: NCI-60 screen (SRB, 48 h)
A498 (Renal cancer) = assay: NCI-60 screen (SRB, 48 h); conditions: Homo sapiens
Ovarian Cancer subpanel = assay: NCI-60 screen, subpanel; conditions: Homo sapiens
HOP-62 (NSC lung cancer) = assay: NCI-60 screen (SRB, 48 h); conditions: Homo sapiens
HCC-2998 (Colon cancer) = assay: NCI-60 screen (SRB, 48 h)
NSC lung cancer subpanel = assay: NCI-60 screen, subpanel; conditions: Homo sapiens
ACHN (Renal cancer) = assay: NCI-60 screen (SRB, 48 h); conditions: Homo sapiens
Melanoma subpanel = assay: NCI-60 screen, subpanel; conditions: Homo sapiens
MCF7 (Breast cancer) = assay: NCI-60 screen (SRB, 48 h); conditions: Homo sapiens
UACC-62 (Melanoma) = assay: NCI-60 screen (SRB, 48 h); conditions: Homo sapiens
UO-31 (Renal cancer) = assay: NCI-60 screen (SRB, 48 h); conditions: Homo sapiens
M14 (Melanoma) = assay: NCI-60 screen (SRB, 48 h); conditions: Homo sapiens
OVCAR-3 (Ovarian cancer) = assay: cells; conditions: Homo sapiens
DU-145 (Prostate cancer) = assay: NCI-60 screen (SRB, 48 h); conditions: Homo sapiens
COLO 205 (Colon cancer) = assay: NCI-60 screen (SRB, 48 h); conditions: Homo sapiens

## C=C(C)[C@@H]1CCC=C2CC[C@]3(C)[C@H](CC[C@@H]4[C@@]5(C)CCCNC(C)(C)[C@@H]5CC[C@]43C)[C@H]21 [Compound 8]
SK-MEL-2 (Melanoma); SK-MEL-2
  GI50: 2.01 µM
SK-MEL-2 (Melanoma); SK-MEL-2, 48 h, read-out: TGI
  IC (TGI): 3.69 µM
SK-MEL-2 (Melanoma); SK-MEL-2, read-out: LC50
  CC50: 6.8 µM
SK-OV-3 (Ovarian cancer); SK-OV-3
  GI50: 1.81 µM
SK-OV-3 (Ovarian cancer); SK-OV-3, 48 h, read-out: TGI
  IC (TGI): 3.37 µM
SK-OV-3 (Ovarian cancer); SK-OV-3, read-out: LC50
  CC50: 6.28 µM
Breast cancer subpanel; 48 h, read-out: TGI MG_MID
  IC (TGI): 3.47 µM
Breast cancer subpanel; read-out: GI50 MG_MID
  GI50: 1.71 µM
Breast cancer subpanel; read-out: LC50 MG_MID
  CC50: 8.38 µM
SW-620 (Colon cancer); SW-620
  GI50: 1.92 µM
SW-620 (Colon cancer); SW-620, 48 h, read-out: TGI
  IC (TGI): 3.75 µM
[1]; NCI-H460
  GI50: 1.22 µM
[1]; NCI-H460, 48 h, read-out: TGI
  IC (TGI): 2.81 µM
LOX IMVI (Melanoma); 48 h
  IC (TGI): 3.16 µM
LOX IMVI (Melanoma); 48 h, 1 dose 10 µM, read-out: Growth % of the Most Sensitive Cell Lines
  activity at 10 µM: -99.5%
LOX IMVI (Melanoma); read-out: GI50
  GI50: 1.67 µM
PC-3 (Prostate cancer); PC-3
  GI50: 1.65 µM
PC-3 (Prostate cancer); PC-3, 48 h, read-out: TGI
  IC (TGI): 3.06 µM
PC-3 (Prostate cancer); PC-3, read-out: LC50
  CC50: 5.68 µM
Renal Cancer subpanel; 48 h, read-out: TGI MG_MID
  IC (TGI): 3.34 µM
Renal Cancer subpanel; read-out: GI50 MG_MID
  GI50: 1.79 µM
Renal Cancer subpanel; read-out: LC50 MG_MID
  CC50: 6.18 µM
[2]; NCI-H226
  GI50: 1.97 µM
[2]; NCI-H226, 48 h, read-out: TGI
  IC (TGI): 3.81 µM
BT-549 (Breast cancer); BT-549
  GI50: 1.68 µM
BT-549 (Breast cancer); BT-549, 48 h
  IC (TGI): 3.23 µM
[3]; 1 dose 10 µM
  Positive Cytostatic Effect (cell lines with percent growth 0 to 50 / total): 7/60
  Positive Cytotoxic Effect (cell lines with percent growth < 0 / total): 49/60
  number of cancer cell lines the compound was active against: 55 cell lines
[3]; Homo sapiens, 48 h, read-out: Mean Growth, %
  activity at 10 µM: -46.7%
[3]; Homo sapiens, 48 h, read-out: Range of Growth, %
  activity at 10 µM: -99.5 to 75.9%
[3]; Homo sapiens, 48 h, read-out: TGI MG_MID60, average over all cell lines
  IC (TGI): 3.53 µM
[3]; Homo sapiens, read-out: GI50 MG_MID60
  GI50: 1.73 µM
[3]; Homo sapiens, read-out: GI50 against all human tumor cell lines
  GI50: < 3 µM
[3]; Homo sapiens, read-out: GI50 against the most sensitive cell lines
  GI50: 0.2 to 0.94 µM
[4]
  GI50: 1.73 µM
[4]; 48 h, read-out: TGI
  IC (TGI): 3.14 µM
[4]; read-out: LC50
  CC50: 5.7 µM
RXF 393 (Renal cancer); Homo sapiens, RXF 393
  GI50: 1.74 µM
RXF 393 (Renal cancer); Homo sapiens, RXF 393, 48 h, read-out: TGI
  IC (TGI): 3.32 µM
RXF 393 (Renal cancer); Homo sapiens, RXF 393, read-out: LC50
  CC50: 6.33 µM
RXF 393 (Renal cancer); RXF 393, 1 dose 10 µM
  Growth % of the Most Sensitive Cell Lines: −91.86%
A498 (Renal cancer); A498
  GI50: 2.03 µM
A498 (Renal cancer); A498, 48 h, read-out: TGI
  IC (TGI): 3.79 µM
A498 (Renal cancer); A498, read-out: LC50
  CC50: 7.08 µM
Ovarian Cancer subpanel; 48 h, read-out: TGI MG_MID
  IC (TGI): 3.5 µM
Ovarian Cancer subpanel; read-out: GI50 MG_MID
  GI50: 1.84 µM
Ovarian Cancer subpanel; read-out: LC50 MG_MID
  CC50: 6.78 µM
HOP-62 (NSC lung cancer); HOP-62
  GI50: 1.82 µM
HOP-62 (NSC lung cancer); HOP-62, 48 h, read-out: TGI
  IC (TGI): 3.41 µM
HOP-62 (NSC lung cancer); HOP-62, read-out: LC50
  CC50: 6.38 µM
HCC-2998 (Colon cancer); HCC-2998, 1 dose 10 µM
  Growth % of the Most Sensitive Cell Lines: −93.75%
HCC-2998 (Colon cancer); Homo sapiens, HCC 2998
  GI50: 1.31 µM
HCC-2998 (Colon cancer); Homo sapiens, HCC 2998, 48 h, read-out: TGI
  IC (TGI): 2.76 µM
NSC lung cancer subpanel; 48 h, read-out: TGI MG_MID
  IC (TGI): 3.3 µM
NSC lung cancer subpanel; read-out: GI50 MG_MID
  GI50: 1.73 µM
NSC lung cancer subpanel; read-out: LC50 MG_MID
  CC50: 6.18 µM
ACHN (Renal cancer)
  GI50: 1.84 µM
ACHN (Renal cancer); 48 h, read-out: TGI
  IC (TGI): 3.26 µM
Melanoma subpanel; 48 h, read-out: TGI MG_MID
  IC (TGI): 3.46 µM
Melanoma subpanel; read-out: GI50 MG_MID
  GI50: 1.84 µM
Melanoma subpanel; read-out: LC50 MG_MID
  CC50: 6.73 µM
MCF7 (Breast cancer); MCF7
  GI50: 1.37 µM
MCF7 (Breast cancer); MCF7, 48 h, read-out: TGI
  IC (TGI): 2.92 µM
MCF7 (Breast cancer); MCF7, read-out: LC50
  CC50: 6.22 µM
UACC-62 (Melanoma); UACC-62
  GI50: 1.73 µM
UACC-62 (Melanoma); UACC-62, 48 h, read-out: TGI
  IC (TGI): 3.16 µM
UACC-62 (Melanoma); UACC-62, read-out: LC50
  CC50: 5.76 µM
UO-31 (Renal cancer); UO-31
  GI50: 1.52 µM
UO-31 (Renal cancer); UO-31, 48 h, read-out: TGI
  IC (TGI): 2.89 µM
UO-31 (Renal cancer); UO-31, read-out: LC50
  CC50: 5.52 µM
M14 (Melanoma); M14
  GI50: 1.89 µM
M14 (Melanoma); M14, 48 h, read-out: TGI
  IC (TGI): 3.38 µM
OVCAR-3 (Ovarian cancer); OVCAR-3
  GI50: 1.79 µM
OVCAR-3 (Ovarian cancer); OVCAR-3, 48 h, read-out: TGI
  IC (TGI): 3.4 µM
DU-145 (Prostate cancer); DU-145
  GI50: 1.77 µM
DU-145 (Prostate cancer); DU-145, 48 h, read-out: TGI
  IC (TGI): 3.33 µM
DU-145 (Prostate cancer); DU-145, read-out: LC50
  CC50: 6.26 µM
COLO 205 (Colon cancer); COLO 205
  GI50: 1.38 µM
COLO 205 (Colon cancer); COLO 205, 48 h, read-out: TGI
  IC (TGI): 2.79 µM
COLO 205 (Colon cancer); COLO 205, read-out: LC50
  CC50: 5.64 µM
